Source: patent US5869501A, “Amidinonaphthyl derivative or salt thereof” (Yamanouchi Pharmaceutical Co. Ltd, priority 1994, dated 1999)
Where a name gives a salt, the structure may show the parent alone. Read-outs that look alike come from different tables or passages of the source.

Tests used:
Assay type in all cases: biochemical
bovine thrombin = target: T1, bovine thrombin (Bos taurus, UniProt P00735); assay: Measurement of coagulation time by bovine thrombin (human fibrinogen); details: pH=7.40, read-out: CT2 (dose which extends the blood coagulation time twice), bovine thrombin
T1 construct: clotting of human fibrinogen
Description: 2) Test on the measurement of coagulation time by bovine thrombin.
Human fibrinogen (freeze-dried preparation, manufactured by Sigma) is dissolved in 0.05M Tris-HCl buffer (pH=7.40) to prepare a 6 mg/ml solution. Bovine thrombin (500 IU/vial, manufactured by Mochida Pharmaceutical) is dissolved in physiological saline to prepare thrombin solutions of various concentrations. A 100 μl portion of the aforementioned fibrinogen solution was mixed with 100 μl of physiological saline, the mixture was incubated at 37° C. for 3 minutes. Then, 100 μl of the aforementioned thrombin solution was added to measure the coagulation time and to determine concentration of thrombin which causes coagulation after about 20 seconds. Next, 100 μl of each drug which has been diluted with physiological saline was added to 100 μl of the aforementioned fibrinogen solution to measure the coagulation time. KC4A manufactured by Amelung was used for the measurement of the coagulation time. A dose which extends the blood coagulation time twice (to be referred to as CT2 hereinafter) was calculated based on the blood coagulation time when 100 μl of physiological saline was added.

[1] = target: T2, human activated blood coagulation factor X (Homo sapiens, UniProt P00742); assay: Measurement of blood coagulation time by human activated blood coagulation factor X (human plasma); details: read-out: CT2 (dose which extends the blood coagulation time twice), human activated blood coagulation factor X
T2 construct: purchased Cosmo Bio
Description: 1) Test on the measurement of blood coagulation time by human activated blood coagulation factor X.
Human activated blood coagulation factor X (manufactured by Cosmo Bio) is dissolved in 0.05M Tris-HCl buffer (pH=7.40) to prepare a 0.05 unit/ml solution. A blood sample collected using 1/10 volume of 3.8% sodium citrate was centrifuged at 3,000 rpm for 10 minutes. Then, 90 μl portion of the thus separated human plasma was mixed with 10 μl of each drug which has been diluted by dissolving in physiological saline and 50 μl of the aforementioned activated blood coagulation factor X solution, and the mixture was incubated at 37° C. for 3 minutes. Then, 100 μl of 20 mM CaCl2 solution was added to measure the blood coagulation time. KC4A manufactured by Amelung was used for the measurement of blood coagulation time. A dose which extends the blood coagulation time twice (to be referred to as CT2 hereinafter) was calculated based on the blood coagulation time when 10 μl of physiological saline was added instead of the drug.

[2] = target: T2, human activated blood coagulation factor X; assay: Measurement of enzyme inhibition by a synthetic substrate method (S-2222); details: 37° C., 15 minutes, absorbance at 405 nm
Description: 3) Test on the measurement of enzyme inhibition by a synthetic substrate method.
Human activated blood coagulation factor X (manufactured by Cosmo Bio) was dissolved in 0.02M Tris-HCl buffer (pH=7.40) containing 0.15M sodium chloride to prepare a 6 units/ml solution. A synthetic substrate S-2222 (manufactured by Daiichi Kagaku Yakuhin) was dissolved in purified water to prepare a 0.75 mg/ml solution. A 25 μl portion of each drug which has been prepared by dissolving the drug in physiological saline was mixed with 170 μl of 0.05M Tris-HCl buffer (pH=8.40) and 50 μl of the S-2222 solution. Then, 10 μl of the human activated blood coagulation factor X solution was added and the mixture was incubated at 37° C. for 15 minutes. The reaction was stopped by adding 50 μl of 60% acetic acid and then the absorbance at 405 nm was measured to calculate IC50 value. Model 3550 manufactured by Bio-Rad was used for the measurement. A reaction mixture prepared by adding physiological saline instead of the drug and adding 60% acetic acid prior to the addition of the human activated blood coagulation factor X solution was used as a control. Concentration of the drug when 50% of the reaction was inhibited (to be referred to as IC50 hereinafter) was calculated based on the control.

[3] = human plasma, 37° C., 3 minutes incubation

T2 sequence (P00742 235-488 limits assumed): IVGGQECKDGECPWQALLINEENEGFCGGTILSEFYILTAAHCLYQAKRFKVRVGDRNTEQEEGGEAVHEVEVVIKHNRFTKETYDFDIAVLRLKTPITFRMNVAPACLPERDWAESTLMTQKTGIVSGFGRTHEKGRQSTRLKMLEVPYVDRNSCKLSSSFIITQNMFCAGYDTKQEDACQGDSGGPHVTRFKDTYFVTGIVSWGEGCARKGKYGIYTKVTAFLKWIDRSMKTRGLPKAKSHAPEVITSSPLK
T2 sequence (P00742 41-179 partner limits assumed): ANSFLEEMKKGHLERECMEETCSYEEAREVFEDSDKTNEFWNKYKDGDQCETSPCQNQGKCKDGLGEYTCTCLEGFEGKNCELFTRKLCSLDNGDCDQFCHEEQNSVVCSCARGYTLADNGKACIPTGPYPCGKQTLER

IC (2-fold clotting time) (bovine thrombin) [µM]	IC (2-fold clotting time) [1, 3] [µM]	Compound	IC50 [2] [nM]	IC (2-fold clotting time) [1] [µM]
> 100	0.11	CCOC(=O)C(=O)N(Cc1ccc2ccc(C(=N)N)cc2c1)c1ccc(OC2CCN(C(C)=N)CC2)cc1 [Example 23, ethyl N-[4-[(1-acetoimidoyl-4-piperidyl)oxy]phenyl]-N-[(7-amidino-2-naphthyl)methyl]oxamate dihydrochloride]		
> 100	0.05	CCS(=O)(=O)N(Cc1ccc2ccc(C(=N)N)cc2c1)c1ccc(OC2CCN(C(C)=N)CC2)cc1 [Example 28, N-[4-[(1-Acetoimidoyl-4-piperidyl)oxy]phenyl]-N-[(7-amidino-2-naphthyl)methyl]ethanesulfonamide dihydrochloride]		
> 100	0.09	CC(=N)N1CCC(Oc2ccc(NCc3ccc4ccc(C(=N)N)cc4c3)cc2)CC1 [Example 31, 7-[[4-[(1-Acetoimidoyl-4-piperidyl)oxy]anilino]methyl]-2-naphthamidine trihydrochloride]		
> 100	0.14	COc1ccccc1C(=O)N(Cc1ccc2ccc(C(=N)N)cc2c1)c1ccc(OC2CCN(C(C)=N)CC2)cc1 [Example 33, N-[4-[(1-Acetoimidoyl-4-piperidyl)oxy]phenyl]-N-[(7-amidino-2-naphthyl)methyl]-2-methoxybenzamide dihydrochloride]		
> 100	0.13	CC(=N)N1CCC(Oc2ccc(N(Cc3ccc4ccc(C(=N)N)cc4c3)C(=O)c3c(F)cccc3F)cc2)CC1 [Example 47, N-[4-[(1-Acetoimidoyl-4-piperidyl)oxy]phenyl]-N-[(7-amidino-2-naphthyl)methyl]-2,6-difluorobenzamide dihydrochloride]		
> 100	0.04	CCOC(=O)NS(=O)(=O)N(Cc1ccc2ccc(C(=N)N)cc2c1)c1ccc(OC2CCN(C(C)=N)CC2)cc1 [Example 63, Ethyl N-[N-[4-[(1-acetoimidoyl-4-piperidyl)oxy]phenyl]-N-[7-amidino-2-naphthyl)methyl]sulfamoyl]carbamate dihydrochloride]		
> 100	0.09	CC(=N)N1CCC(Oc2ccc(N(Cc3ccc4ccc(C(=N)N)cc4c3)S(=O)(=O)c3ccc(C(=O)O)cc3)cc2)CC1 [Example 74, 4-[N-[4-[(1-Acetoimidoyl-4-piperidyl)oxy]phenyl]-N-[(7-amidino-2-naphthyl)methyl]sulfamoyl]benzoic acid dihydrochloride]		
> 100	0.04	CCOC(=O)N(CC(=O)O)S(=O)(=O)N(Cc1ccc2ccc(C(=N)N)cc2c1)c1ccc(OC2CCN(C(C)=N)CC2)cc1 [Example 86, N-[N-[4-[(1-Acetoimidoyl-4-piperidyl)oxy]phenyl]-N-[(7-amidino-2-naphthyl)methyl]sulfamoyl]-N-ethoxycarbonylglycine dihydrochloride]		

Compound	IC (2-fold clotting time) (bovine thrombin) [µM]	IC (2-fold clotting time) [1, 3] [µM]	IC50 [2] [nM]	IC (2-fold clotting time) [1] [µM]
CNS(=O)(=O)N(Cc1ccc2ccc(C(=N)N)cc2c1)c1ccc(OC2CCN(C(C)=N)CC2)cc1 [Example 79, N-[4-[(1-Acetoimidoyl-4-piperidyl)oxy]phenyl]-N-[(7-amidino-2-naphthyl)methyl]-N'-methylsulfamide dihydrochloride]	> 100		91	0.05
CCOC(=O)CNS(=O)(=O)N(Cc1ccc2ccc(C(=N)N)cc2c1)c1ccc(OC2CCN(C(C)=N)CC2)cc1 [Example 88, Ethyl N-[N-[4-[(1-acetoimidoyl-4-piperidyl)oxy]phenyl]-N-[(7-amidino-2-naphthyl)methyl]sulfamoyl]glycinate dihydrochloride]	> 100		47	0.04
